# System: not listed separately
# Experiment: n-Octanol/water partition coefficient, logP of the compound
# Type: physicochemical
# Conditions: n-octanol/water; read-out: logP
row,SMILES,logP
1,CCCOC(=O)Cc1ccc(OCC(=O)N2CCN(C(=O)OC(C)(C)C)CC2)c(OCC)c1,2.3
2,CCCOC(=O)Cc1ccc(OCC(=O)N2CCNCC2)c(OCC)c1,1.7
3,CCOC(=O)Cc1ccc(OCC(=O)N2CCN(C(=O)OC(C)(C)C)CC2)c(OC)c1,1.5
4,CCOC(=O)Cc1ccc(OCC(=O)N2CCCC2)c(OC)c1,1.3
5,CCOc1cc(CC(=O)OCC(F)(F)F)ccc1OCC(=O)N(CC)CC,2.6
6,CCOC(=O)Cc1ccc(OCC(=O)N2CCNCC2)c(OC)c1,1.5
7,CCOC(=O)Cc1ccc(OCC(=O)N2CCOCC2)c(OC)c1,1.4

# System: not listed separately
# Experiment: Toxicity in mouse assessed as lethal dose
# Conditions: in vivo
row,SMILES,LD50 [mg/kg]
1,CCCOC(=O)Cc1ccc(OCC(=O)N2CCN(C(=O)OC(C)(C)C)CC2)c(OCC)c1,240
2,CCOC(=O)Cc1ccc(OCC(=O)N2CCN(C(=O)OC(C)(C)C)CC2)c(OC)c1,257
3,CCOC(=O)Cc1ccc(OCC(=O)N2CCOCC2)c(OC)c1,278

# System: Mus musculus
# Experiment: Anesthetic activity in mouse assessed as concentration required to induce hypnotic effect
# Type: functional
# Conditions: not given
row,SMILES,ED50 [mg/kg]
1,CCCOC(=O)Cc1ccc(OCC(=O)N2CCN(C(=O)OC(C)(C)C)CC2)c(OCC)c1,32.9
2,CCCOC(=O)Cc1ccc(OCC(=O)N2CCNCC2)c(OCC)c1,> 100
3,CCOC(=O)Cc1ccc(OCC(=O)N2CCN(C(=O)OC(C)(C)C)CC2)c(OC)c1,35.2
4,CCOC(=O)Cc1ccc(OCC(=O)N2CCCC2)c(OC)c1,56.8
5,CCOC(=O)Cc1ccc(OCC(=O)N2CCNCC2)c(OC)c1,> 100
6,CCOC(=O)Cc1ccc(OCC(=O)N2CCOCC2)c(OC)c1,44.8

# System: not listed separately
# Experiment: Therapeutic index, ratio of LD50 for toxicity in mouse to HD50 for anesthetic activity in mouse assessed as concentration required to induce hypnotic effect
# Conditions: read-out: TI
row,SMILES,selectivity ratio
1,CCCOC(=O)Cc1ccc(OCC(=O)N2CCN(C(=O)OC(C)(C)C)CC2)c(OCC)c1,7.3
2,CCOC(=O)Cc1ccc(OCC(=O)N2CCN(C(=O)OC(C)(C)C)CC2)c(OC)c1,7.3
3,CCOC(=O)Cc1ccc(OCC(=O)N2CCOCC2)c(OC)c1,6.2

# Target: GABA-A receptor; anion channel (Homo sapiens) (UniProt P14867+P47870+P18507+P28472+P48169+Q99928+Q9UN88+P34903+O00591+O14764+Q8N1C3+P18505+P78334+P47869+P31644+Q16445)
# Experiment: Inhibition of GABAA receptor (unknown origin) at 50 uM by radioligand receptor binding assay relative to control
# Type: protein-complex assay
# Conditions: not given
row,SMILES,inhibition [%]
1,CCCOC(=O)Cc1ccc(OCC(=O)N2CCN(C(=O)OC(C)(C)C)CC2)c(OCC)c1,33.4
2,CCCOC(=O)Cc1ccc(OCC(=O)N2CCNCC2)c(OCC)c1,23.1
3,CCOC(=O)Cc1ccc(OCC(=O)N2CCN(C(=O)OC(C)(C)C)CC2)c(OC)c1,55.2
4,CCOC(=O)Cc1ccc(OCC(=O)N2CCCC2)c(OC)c1,48.8
5,CCOC(=O)Cc1ccc(OCC(=O)N2CCNCC2)c(OC)c1,44.5
6,CCOC(=O)Cc1ccc(OCC(=O)N2CCOCC2)c(OC)c1,52.9
